Source: PubChem BioAssay AID248 (DTP/NCI, 2004)
“And” between values parts separate entries of the source, which are not always exact repeats. Equal values may be shown once. Toxic doses and inconclusive results are not listed. No stated cut-off is given here; in the data, active means T/C of 150% or more; inactive means T/C below 125%.

Tested on: L1210 leukemia ip in BDF1 mice, survival T/C
Assay: NCI In Vivo Anticancer Drug Screen. Data for tumor model L1210 Leukemia (intraperitoneal) in B6D2F1 (BDF1) mice
Conditions: endpoint: mean survival time, higher = longer survival
In short: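 Antitumor effect is assessed in tumor-bearing animals. Survival in the compound arm is compared with a vehicle-dosed control arm and expressed as their quotient.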

Measured: T/C

CCCCOP(=O)(OCCCC)N(C)c1ccccc1
inactive: dose: 25.0 mg/kg/injection, schedule: Q04DX002 (ip), vehicle: saline with Tween-80 89 % of control | dose: 50.0 mg/kg/injection, schedule: Q04DX002 (ip), vehicle: saline with Tween-80 95 % of control | dose: 100.0 mg/kg/injection, schedule: Q04DX002 (ip), vehicle: saline with Tween-80 92 % of control and 93 % of control

COc1ccc(CC(=S)N2CCOCC2)cc1
inactive: dose: 100.0 mg/kg/injection, schedule: Q01DX009 (ip), vehicle: Klucel (hydroxypropylcellulose) (HPC) 104 % of control | dose: 100.0 mg/kg/injection, schedule: Q04DX002 (ip), vehicle: Klucel (hydroxypropylcellulose) (HPC) 98 % of control | dose: 200.0 mg/kg/injection, schedule: Q01DX009 (ip), vehicle: Klucel (hydroxypropylcellulose) (HPC) 102 % of control | dose: 200.0 mg/kg/injection, schedule: Q04DX002 (ip), vehicle: Klucel (hydroxypropylcellulose) (HPC) 95 % of control | dose: 400.0 mg/kg/injection, schedule: Q01DX009 (ip), vehicle: Klucel (hydroxypropylcellulose) (HPC) 96 % of control

BrC1(c2ccccc2)C(c2ccccc2)=C1c1ccccc1
inactive: dose: 50.0 mg/kg/injection, schedule: Q01DX001 (ip), vehicle: carboxymethylcellulose (CMC) 94 % of control | dose: 100.0 mg/kg/injection, schedule: Q01DX001 (ip), vehicle: carboxymethylcellulose (CMC) 94 % of control | dose: 200.0 mg/kg/injection, schedule: Q01DX001 (ip), vehicle: carboxymethylcellulose (CMC) 96 % of control
